# Measurements: patent US12128035B2, “Activating pyruvate kinase R” (Novo Nordisk Health Care AG, priority 2021, dated 2024)
# What was measured:
# [1] = Phase 1: hematologic and hemolytic laboratory parameters in SCD patients; type: in vivo, human; settings: SCD single 700 mg dose
# [2] = system: panels of receptors, enzymes, ion channels, and kinases; test: Preclinical safety: arrhythmia risk, mutagenicity, nonspecific binding panels; settings: in vitro panels
# Human SCD cells = test: Ex vivo sickling under hypoxic conditions; type: cell-based; settings: for Net % of Sickled Cells / % Protection: 10 μM
# Method: Red blood cells from SCD patients were used to evaluate the effects of Compound 1 on Hgb affinity for oxygen (i.e., oxygen affinity) and sickling under hypoxic conditions. Cells were incubated at 37° C. for 1, 2, and 3 hr with HEPES buffered saline (HBS) (untreated), HBS+dimethyl sulfoxide (DMSO) (vehicle), or 10 μM Compound 1. To assess oxygen dissociation, Hgb oxygen equilibrium curves were collected during deoxygenation.
# Compound 1 (10 μM) reduced cell sickling under severe hypoxic conditions of 2% oxygen (PO2 of <20 mmHg) for up to 20 min (Table 8).
# [3] = system: p50 (PO2 at 50% hemoglobin saturation); test: Phase 1: p50 (oxygen affinity) in SCD patients; type: in vivo, human
# Method: In SCD patients, the mean absolute change in p50, relative to baseline, measured 24 hours after a single 700 mg dose of Compound 1, was −4 mmHg.
# With respect to the bar graphs representing the “Untreated” and “Treated” subjects in the SCD MAD cohort, the bar on the left side represents the P50 measured Pre-Dose, and the bar on the right side represents the P50 measured after 14 days of Compound 1, 300 mg once daily. SCD RBCs have higher P50 at baseline compared to HV RBCs. In the MAD cohort in SCD patients (300 mg QD for 14 days), the mean absolute change in p50, relative to baseline, measured 24 hours after the final dose of Compound 1, was −4 mmHg.
# The oxygen affinity of RBCs was measured in patient blood using a Hemox Analyzer (TCS Scientific Corp.), an automatic system for the recording of blood oxygen equilibrium curves and related phenomena. The Hemox Analyzer was used according to standard methods to determine the hemoglobin-oxygen dissociation curves for whole blood samples, numerically characterized by the p50, the partial pressure of oxygen at which hemoglobin is 50% saturated. […] In the case of hemoglobin, the wavelength of maximum absorbance is the measuring wavelength (560 nm), while the reference wavelength is at the isosbestic point at (570 nm). The absorbance at the isosbestic point remains unchanged during the deoxygenation process of the hemoglobin, however the measuring wavelength (560 nm) undergoes a drastic change in absorbance. This change is detected by the electronic circuitry and is plotted as the log/ratio change between the two wavelengths. The log/ratio measurement at 560 nm and 570 nm is utilized to measure the optical absorbance change during the deoxygenation of the hemoglobin. Simultaneously with the measurement of the hemoglobin absorbance, the oxygen concentration is directly measured in the sample using a Clark electrode. […]
# Log D7.4 = type: physicochemical; settings: pH 7.4
# Source text: (§1) [drawing 2] is a selective, orally bioavailable PKR Activating Compound that decreases 2,3-DPG, increases ATP, and has anti-sickling effects in disease models with a wide therapeutic margin relative to preclinical toxicity. Compound 1 is a potent activator of PKR and a multi-modal metabolic modulator of RBCs. Activation of PKR simultaneously reduces 2,3-DPG concentrations, which increases hemoglobin-oxygen affinity and decreases sickling, while also increasing intracellular ATP, which improves RBC health and reduces hemolysis, or RBC death. Compound 1 is a BCS class II compound with poor water solubility and high permeability.
# [4] = type: physicochemical
# Source text: as §1
smiles,measurement,setting,value
"O=C([C@H](CO)c1ccccc1)N1CC2=C(C1)CN(S(=O)(=O)c1cnc3c(c1)OCCO3)C2 (single isomer, unassigned) [Compound 1]",Hb difference versus placebo,[1]; 24 h,~0.9 g/dL
same,increase in Hb,"[1]; 24 hours, range 0.3, 0.9",0.5 g/dL
same,"preclinical evidence of arrhythmia risk, mutagenicity, nonspecific binding",[2],"has not demonstrated any preclinical evidence of arrhythmia risk, mutagenicity, or nonspecific binding activity"
same,Net % of Sickled Cells,Human SCD cells; 0 min in hypoxic conditions (DMSO 7),10%
same,% Protection,Human SCD cells; 2 min in hypoxic conditions,−15%
same,Net % of Sickled Cells,Human SCD cells; 2 min in hypoxic conditions (DMSO 41),47%
same,% Protection,Human SCD cells; 5 min in hypoxic conditions,14%
same,Net % of Sickled Cells,Human SCD cells; 5 min in hypoxic conditions (DMSO 57),49%
same,% Protection,Human SCD cells; 10 min in hypoxic conditions,11%
same,Net % of Sickled Cells,Human SCD cells; 10 min in hypoxic conditions (DMSO 61),54%
same,% Protection,Human SCD cells; 15 min in hypoxic conditions,16%
same,Net % of Sickled Cells,Human SCD cells; 15 min in hypoxic conditions (DMSO 68),57%
same,Net % of Sickled Cells,Human SCD cells; 20 min in hypoxic conditions (DMSO 71),60%
same,% Protection,Human SCD cells; 20 min in hypoxic conditions (last time point),15%
same,percent protection (maximum),Human SCD cells; severe hypoxic conditions of 2% oxygen,up to 16%
same,"mean absolute change in p50, relative to baseline","[3]; SCD 300 mg QD for 14 days, 24 hours after the final dose",−4 mmHg
same,p50 (Oxygen affinity curve),"[3]; SCD single 700 mg, Post-dose (24 hours), median (range), pre-dose 29.4 (26.1, 32.3)","25.8 (23.3, 26.8)"
same,"mean absolute change in p50, relative to baseline","[3]; SCD, 24 hours after single 700 mg dose",−4 mmHg
same,Log D7.4,Log D7.4,1.09
same,BCS class,[4],BCS class II
